Reference: patent publication US10494404B2, “Quinolinium conjugates of cyclosporin” (priority 2014, dated 2019)

How the values were obtained:
[1] = test system: DIV 8-9 rat cortical neurons; assay: Mitochondrial functional parameters in DIV 8-9 rat cultured cortical neurons; assay type: cell-based; conditions: Compound 1 up to 200 nM, CsA up to 1 μM
Experimental: The minimum value after the addition of compound (prior to the addition of FCCP) was taken, and this was expressed as a % (using baseline as 100% and FCCP as 0%), and then normalized to DMSO (100%). Significance was assessed by one-way ANOVA, in comparison to DMSO control.
(§1) Freshly isolated mitochondria were resuspended in MSK buffer (containing 10 mM glutamate and 2 mM malate) at 1 mg/ml and plated in opaque white 96 well plates, or for neuronal assays, neurons were used 9 days after plating at 15000 cells/well. Drugs were added at the concentrations specified, and for mitochondrial assays were incubated for ten minutes before addition of ADP (5 mM), followed by another 45 minutes. For neuronal assays, drugs were added in neurobasal medium and incubated for 60 minutes. Cell Titer Glo reagent was then added, and the plate shaken for 2 minutes in the dark to lyse cells/mitochondria and release ATP. The plates were incubated a further ten minutes and then luminescence values read using an Optima FluoStar.

[2] = test system: isolated rat liver mitochondria; assay: Mitochondrial functional parameters in isolated liver mitochondria; assay type: biochemical; conditions: Compound 1 up to 200 nM, CsA up to 1 μM
Experimental: Oxygen consumption was measured using Oroboros Oxygraph-2K as previously described (Astin et al, 2013). Prior to the assay, the Oxygraph chambers were calibrated with Miro5 buffer (0.5 mM EGTA, 3 mM MgCl2.6H2O, 60 mM K-lactobionate, 20 mM taurine, 10 mM KH2PO4, 20 mM HEPES, 110 mM sucrose, 1 g/l BSA (essentially fatty acid free)). Isolated mitochondria were suspended in Miro5 (at 100-200 μg/ml), loaded into the chamber together with substrates (malate, 2 mM; glutamate, 10 mM), and the O2 flow signal was allowed to stabilise to the basal respiration rate (approx. 10 min).
Freshly isolated mouse liver mitochondria were suspended in MSK buffer containing 10 ug/ml rhodamine123 (dequench mode), at a concentration of 500 ug/ml, and plated in an opaque black 96 well plate. Baseline fluorescence was then measured every 60 seconds for 5 minutes in a Fluostar Optima (Ex480/Em520) before manual addition of compounds (concentrations as specified). Fluorescence measurements were continued for 45 minutes until the addition of 2 uM FCCP, followed by a further 10 minutes of fluorescence readings.
as §1

[3] = test system: HepG2 cells; assay: HepG2 high content screening of cell health markers; assay type: cell-based; conditions: HepG2, 72 h exposure
Experimental: HepG2 cells were plated on 96-well tissue culture treated black walled clear bottomed polystyrene plates, 100 μL, (3000 cells) per well. After 24 hours the cells were dosed with the test compounds at a range of concentrations. At the end of the incubation period, the cells were loaded with the relevant dye/antibody for each cell health markers set out below. The plates were then scanned using an automated fluorescent cellular imager [ArrayScan VTI (Thermo Scientific Cellomics)].
The following cell health markers were measured: • a. Cell count—a decreasing number of cells per well indicates toxicity due to necrosis, apoptosis or a reduction in cellular proliferation. • b. Nuclear area—an increase in nuclear size indicates necrosis or G2 cell cycle arrest and a decrease indicates apoptosis. • c. DNA structure—an increase in DNA structure indicates chromosomal instability and DNA fragmentation. • d. […]
HepG2 cells were seeded in black, clear-bottom 96-well tissue culture plates at a density of 3000 cells per well. […] Cell count, nuclear size and DNA structure were also measured Hoechst 33342 (Life Technologies). Following staining of the HepG2 cells fluorescence was analyzed by image acquisition with a Thermo Fisher Cellomics® ArrayScanVTI High Content Screening Reader (ThermoFisher Scientific Inc., Waltham, Mass.) and vHCS™ view software (ThermoFisher Scientific Inc.). […]

[4] = test system: T cell proliferative response in the draining auricular lymph node; assay: Oxazolone contact hypersensitivity model, in vivo T cell proliferation; parameters: species or system mouse
Experimental: To identify non-immunosuppressive doses of potential neuroprotective compounds for use in models of MS (Al-Izki et al, 2014) we employed a model using epicutaneous application of the ear skin sensitizer, oxazolone, to induce a T cell proliferative response in the draining auricular lymph node peaking 3 days later (Baker et al, 2011).
The contact sensitiser 4-ethoxymethylene-2-phenyl-2-oxazolin-5-one (oxazolone, OX, Sigma) was dissolved (25 mg/ml) in 4:1 acetone:olive oil (AOO). Mice (n=3 per group) received epicutaneous application of either 25 μl of 2.5% OX or AOO on the dorsum of the ear on day 0 (O'Neill et al, 1992). The draining auricular lymph nodes were removed three days later and the induced proliferative response was assessed as previously described. Briefly, 5×10^5 cells per well were cultured in RPMI-1640 medium with glutamate (Gibco®, Invitrogen Ltd, Paisley UK), supplemented with 0.5 mM sodium, in round-bottomed 96 well plates overnight at 37° C. in a humidified atmosphere of 5% CO2. In the presence of 1 μCi^3H-thymidine (PerkinElmer, Mass., USA) per well. […] Results are expressed as mean±SEM thymidine incorporation counts per minute (CPM)

## CC[C@@H]1NC(=O)[C@H]([C@H](O)[C@H](C)C/C=C/CCC[n+]2cccc3ccccc32)N(C)C(=O)[C@H](C(C)C)N(C)C(=O)[C@H](CC(C)C)N(C)C(=O)[C@H](CC(C)C)N(C)C(=O)[C@@H](C)NC(=O)[C@H](C)NC(=O)[C@H](CC(C)C)N(C)C(=O)[C@H](C(C)C)NC(=O)[C@H](CC(C)C)N(C)C(=O)CN(C)C1=O [Compound 1, [Gly-(1S,2R,E)-8-quinolinium-1-hydroxy-2-methyloct-4-ene]^1 CsA]
[1]; TMRM
  mitochondrial membrane potential: Neither mitochondrial membrane potential (FIG. 4A,B), oxygen consumption (FIG. 4C, D) and ATP production (FIG. 4E, F) were affected
[1]; luciferase assay
  ATP levels / ATP production: Neither mitochondrial membrane potential (FIG. 4A,B), oxygen consumption (FIG. 4C, D) and ATP production (FIG. 4E, F) were affected
[2]; isolated mitochondria with substrates and ADP
  ATP production: Neither mitochondrial membrane potential (FIG. 4A,B), oxygen consumption (FIG. 4C, D) and ATP production (FIG. 4E, F) were affected
[2]; isolated mitochondria, glutamate and malate
  oxygen consumption: Neither mitochondrial membrane potential (FIG. 4A,B), oxygen consumption (FIG. 4C, D) and ATP production (FIG. 4E, F) were affected
[2]; isolated mitochondria, rhodamine-123
  mitochondrial membrane potential: Neither mitochondrial membrane potential (FIG. 4A,B), oxygen consumption (FIG. 4C, D) and ATP production (FIG. 4E, F) were affected
[3]
  toxicity (cell health markers) compared with unmodified CsA: significantly reduced the toxicity of cyclosporin
[4]; daily 0.1 mg/kg i.p.
  effect on T cell response: had no effect
[4]; daily 1 mg/kg i.p.
  effect on T cell response: had no effect
[4]; daily 10 mg/kg i.p.
  effect on T cell response: inhibited the T cell response
